Results taken from patent US20220257764A1, “USE OF DIKETONE COMPOUND IN PHOTODYNAMIC THERAPY OR DIAGNOSIS” (BEIJING WHOLESOMETECH CO., LTD., priority 2019, published 2022).
Like-named read-outs stand apart in the source and are kept apart here.

System: Escherichia coli
Test: Inhibitory effect on bacteria (colony counting), under light and in the dark
Assay type: cell-based
Conditions: 60 mM
Procedure: A single Escherichia coli colony was transferred from a solid Luria Bertani (LB) agar plate to 5 ml liquid LB medium and incubated at 37° C. for 12 h. Bacteria were collected by centrifugation (7000 rpm, 1 min) and washed with PBS buffer three times. The supernatant was discarded, and the remaining Escherichia coli cells were resuspended in the PBS buffer. The bacterial suspension was adjusted to make its optical density (OD600) to 1.0. The suspension was then diluted (5 times) with PBS buffer. The diluted Escherichia coli cell suspension was incubated in the dark at 37° C. for 15 min in the presence of a photosensitizer (diketone compound) solution with a concentration of 60 mM, and then irradiated for 200 s under a 15 mW/cm^2 laser light (with a wavelength of 450 nm to 480 nm and in the final light dose of about 3 J cm^2), and after the irradiation the bacterial suspension was serially diluted (10^4 times) with PBS buffer. 100 μL of the diluted bacterial Escherichia coli cell was dispersed on a solid LB agar plate and incubated at 37° C. for 12 h to 16 h, and colonies formed were counted. In the meanwhile, a treated group in the dark and an untreated group in the dark were set; the inhibition rate was determined by dividing the number of colony forming units (cfu) killed in the treated group under light or the treated group in the dark by the number of colony forming units (cfu) killed in the untreated group in the dark.

CC(=O)C(C)=O [BJMU-204]
inhibition at 60000 µM (450-480 nm laser, 15 mW/cm^2, 200 s, read-out: Inhibition rate under light): 96% | inhibition at 60000 µM (in the dark, read-out: Inhibition rate in the dark): 10.3%
